The test system of data set [1] is human adipose stem cells cocultured with HUVECs. The experiment in a line: Matrigel tube formation assay after coculturing with HUVECs. The settings on record: FIG. 8; adipose stem cells exposed to glycerol vs not exposed. The class given is cell-based. On the procedure:
3. Tube Formation Assay Vascular tube formation ability was observed after coculturing the cells with human umbilical vein endothelial cells (HUVECs). Differentiation potency was evaluated by Matrigel tube formation assay, which is widely used to compare formation of capillary-like structures in vitro, after coculturing human adipose stem cells with HUVECs.

A further data set concerns AKT. The experiment in a line: Analysis of activation mechanism: degree of AKT activation (pAKT/tAKT). The class given is cell-based, human. The settings on record: FIG. 7; decreased again by inhibition of aquaporins (AQ1 and AQ9).
Data set [2] concerns human adipose stem cells. The experiment in a line: Culturing of adipose stem cells in medium containing glycerol, cell counting. It counts as cell-based. On the procedure:
Through experiments to elucidate the mechanism of improved growth ability observed in coculturing with adipocytes, The present inventors have confirmed that the fat metabolite glycerol is one of the important factors and found out that the growth ability and differentiation efficiency can be enhanced only with glycerol, without adipocytes. […] […] […] In addition, the degree of DNA polymerization was evaluated by BrdU assay in order to further investigate the ability of cell growth and differentiation.

Data set [3] deals with human adipose stem cells. The experiment in a line: Growth ability (BrdU assay). The class given is cell-based. The following applies: FIG. 6b. On the procedure:
1. Growth Ability (BrdU Assay) DNA polymerization occurring during cell growth was quantitated using BrdU. The same number of isolated human adipose stem cells (2×10^4 cells each) were cultured in a culture dish in α-MEM containing 10-100 μM glycerol and 10% FBS. […] In addition, the degree of DNA polymerization was evaluated by BrdU assay in order to further investigate the ability of cell growth and differentiation.

Experimental for AKT: Then, protein was extracted from the cells of each group and the degree of AKT activation, which is a measure of cell activity, was measured. […] The degree of AKT activation is evaluated from the ratio of phosphorylated AKT (pAKT) to total AKT (tAKT). The total AKT was normalized with β-actin which is normally expressed in cells.

For `OCC(O)CO` [glycerol], in data set [1], the “vascular tube formation ability” value is “increased vascular structures and densities”. In addition, the AKT activity entry with AKT is reported as “increased AKT activity”. In addition, the “most effective glycerol concentration” value in the data set with human adipose stem cells [2] (FIG. 6, cell number, BrdU, morphology) was found to be 10 µM. The cell number entry in the data set with human adipose stem cells [2] (FIG. 6a, adipose stem cells cultured in medium containing glycerol, by glycerol concentration) is “increased in a glycerol concentration-dependent manner”. Also, the “cell number versus control groups” value with human adipose stem cells [2] (G10 (10 μM glycerol), α-MEM with 10% FBS, 2×10^4 cells seeded, FIG. 6a) was “showed a cell number larger than those of the negative control group “control” and the positive control group “bFGF (4 ng/mL)””. In addition, the cytotoxicity result with human adipose stem cells [2] (glycerol concentration 500 μM) was “cytotoxicity was observed”. In addition, the “BrdU incorporation owing to cell division” value in the data set with human adipose stem cells [3] (with glycerol concentration) is listed as “increased BrdU incorporation”. The “DNA synthesis (BrdU assay)” value in the data set on human adipose stem cells [3] (group G1) and in the data set with human adipose stem cells [3] (group G10 (10 μM glycerol)) was “showed active DNA synthesis” throughout.
